Common to all, as to format: in vivo
One test has as its system Septoria tritici. Briefly: Test A: wheat leaf blotch, preventive spray on wheat seedlings. Conditions: 50 ppm, 100 = 100% disease control, 0 = no control relative to controls. A digest of the protocol: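 Compounds were suspended in acetone/water (50/50) with 250 ppm PEG400 and sprayed to run-off on wheat seedlings. The next day the seedlings were inoculated with Septoria tritici spores, held 48 h at 24 °C in saturated humidity, then 17 days at 20 °C. Disease control was rated 0–100 relative to controls.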

Test [1] has as its system Puccinia recondita f. sp. tritici. The experiment in a line: Test B: wheat leaf rust, preventive spray on wheat seedlings. The settings on record: 50 ppm, 100 = 100% disease control, 0 = no control relative to controls. A digest of the protocol:
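Compounds in acetone/water (50/50) with 250 ppm PEG400, sprayed to run-off on wheat seedlings at stated ppm; inoculated next day with P. recondita spores. Held 24 h saturated at 20° C., then 7 days in growth chamber at 20° C.; rating 0–100 = % disease control vs controls.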

Test [2] deals with Blumeria graminis f. sp. tritici. The experiment in a line: Test C: wheat powdery mildew, preventive spray on wheat seedlings. The settings on record: 50 ppm, rated after 8 days, 100 = 100% disease control, 0 = no control. The essentials: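 Compound dissolved in acetone (3% of final volume), then suspended in 50/50 acetone/water with 250 ppm PEG400 and sprayed to run-off on wheat seedlings. Inoculated next day with B. graminis f. sp. tritici spore dust, kept 8 days at 20° C; visual rating, 100 = full control, 0 = none, relative to controls.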

Another test relates to Phakopsora pachyrhizi. Briefly: Test D: Asian soybean rust, preventive spray on soybean seedlings. Conditions: 50 ppm, 100 = 100% disease control, 0 = no control. A digest of the protocol:
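Soybean seedlings sprayed to run-off with compound suspension (ppm, in 50/50 acetone/water with 250 ppm PEG400), inoculated next day with P. pachyrhizi spores, held 24 h saturated at 22°C then 8 days at 22°C. Visual rating 0-100% disease control relative to controls.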

The test system of another test is Botrytis cinerea. The experiment in a line: Test E: tomato Botrytis, preventive spray on tomato seedlings. The settings on record: 50 ppm, 100 = 100% disease control, 0 = no control. The essentials: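 Tomato seedlings sprayed to run-off with compound (ppm) in acetone/water with 250 ppm PEG400, then inoculated next day with B. cinerea spores. Held 48 h at 20 °C in saturated atmosphere, then 3 days at 24 °C. Visual rating 0–100% disease control relative to untreated controls.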

The test system of another test is Alternaria solani. The experiment in a line: Test F: tomato early blight, preventive spray on tomato seedlings. Conditions: 50 ppm, 100 = 100% disease control, 0 = no control. A digest of the protocol:
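Compounds in acetone/water (50/50) with 250 ppm PEG400, dosed in ppm, sprayed to run-off on tomato seedlings; next day inoculated with A. solani spores. Held 48 h saturated at 27° C, then 3 days at 20° C; visual rating 0–100% disease control relative to controls.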

The text below walks through data of patent US12398107B2, “Fungicidal nitroanilino substituted pyrazoles” (FMC Corporation, priority 2018, dated 2025).

`Cc1nn(C)c(Nc2ccc(Cl)cc2[N+](=O)[O-])c1-c1ccc(F)cc1Cl` [Compound 92]: the “Test A disease control rating (wheat leaf blotch)” value (“Test A disease control rating” below) in the test on Septoria tritici is listed as 100%. Besides, the “Test B disease control rating (wheat leaf rust)” value (“Test B disease control rating” below) in test [1] stood at 96%. Also, the “Test C disease control rating (wheat powdery mildew)” value (from here on “Test C disease control rating”) in test [2] is on record as 89%. The “Test D disease control rating (Asian soybean rust)” value (“Test D disease control rating” below) in the test on Phakopsora pachyrhizi is on record as 0%. Also, the “Test E disease control rating (tomato Botrytis)” value (“Test E disease control rating” for short) in the test with Botrytis cinerea is 100%. The “Test F disease control rating (tomato early blight)” value (shortened to “Test F disease control rating”) in the test with Alternaria solani is 79%.
As for `Cc1cc(Cl)c(Nc2c(-c3ccc(C#N)cc3Cl)c(C)nn2C)c([N+](=O)[O-])c1` [Compound 156], in the test on Septoria tritici, the “Test A disease control rating” value was 91%. Besides, the “Test B disease control rating” value in test [1] is given as 91%. The “Test C disease control rating” value in test [2] worked out at 66%. For the same compound, the “Test D disease control rating” value in the test with Phakopsora pachyrhizi was 0%. The “Test E disease control rating” value in the test on Botrytis cinerea was 0%. Moreover, in the test on Alternaria solani, the “Test F disease control rating” value was determined as 0%.
For the compound `Cc1nn(C)c(Nc2c(Cl)cc(F)cc2[N+](=O)[O-])c1-c1ccc(Cl)cc1F` [Compound 176], the “Test A disease control rating” value with Septoria tritici is listed as 100%. For the same compound, the “Test B disease control rating” value in test [1] amounted to 97%. Moreover, in test [2], the “Test C disease control rating” value amounted to 0%. Further, in the test with Phakopsora pachyrhizi, the “Test D disease control rating” value is 0%. In addition, the “Test E disease control rating” value in the test on Botrytis cinerea came out at 9%. In addition, in the test with Alternaria solani, the “Test F disease control rating” value is given as 0%.
For `Cc1cc(Cl)c(Nc2c(-c3ccc(F)cc3Cl)c(C)nn2C)c([N+](=O)[O-])c1` [Compound 31], the “Test A disease control rating” value in the test with Septoria tritici stood at 100%. Also, the “Test B disease control rating” value in test [1] is recorded as 100%. The “Test C disease control rating” value in test [2] stood at 100%. For the same compound, the “Test D disease control rating” value with Phakopsora pachyrhizi came to 98%. In the test with Botrytis cinerea, the “Test E disease control rating” value is 99%. The “Test F disease control rating” value in the test on Alternaria solani amounted to 76%.
Regarding `CCc1nn(C)c(Nc2c(F)cccc2[N+](=O)[O-])c1-c1c(F)cc(Cl)cc1F` [Compound 170], the “Test A disease control rating” value in the test with Septoria tritici was 100%. Moreover, the “Test B disease control rating” value in test [1] was found to be 99%. Besides, the “Test C disease control rating” value in test [2] is given as 99%. In addition, the “Test D disease control rating” value with Phakopsora pachyrhizi is reported as 0%. In addition, the “Test E disease control rating” value in the test with Botrytis cinerea amounted to 100%. The “Test F disease control rating” value in the test on Alternaria solani is on record as 99%.
Turning to `CCc1nn(C)c(Nc2ccc(OC)cc2[N+](=O)[O-])c1-c1ccc(F)cc1F` [Compound 45], in the test with Septoria tritici, the “Test A disease control rating” value turned out to be 100%. The “Test B disease control rating” value in test [1] came out at 86%. In addition, the “Test C disease control rating” value in test [2] worked out at 95%. Further, the “Test D disease control rating” value with Phakopsora pachyrhizi came out at 0%. The “Test E disease control rating” value with Botrytis cinerea is listed as 99%. For the same compound, the “Test F disease control rating” value with Alternaria solani stood at 33%.
Turning to `Cc1cc(F)c(Nc2c(-c3ccc(F)cc3Br)c(C)nn2C)c([N+](=O)[O-])c1` [Compound 40], the “Test A disease control rating” value in the test with Septoria tritici came to 100%. Moreover, the “Test B disease control rating” value in test [1] was found to be 100%. Further, the “Test C disease control rating” value in test [2] was determined as 100%. Besides, the “Test D disease control rating” value with Phakopsora pachyrhizi was determined as 82%. Moreover, the “Test E disease control rating” value in the test with Botrytis cinerea was determined as 98%. Moreover, in the test with Alternaria solani, the “Test F disease control rating” value is listed as 100%.
Take `COc1ccc(-c2c(C)nn(C)c2Nc2c(Cl)cc(Cl)cc2[N+](=O)[O-])c(Cl)c1` [Compound 65]: the “Test A disease control rating” value with Septoria tritici is on record as 94%. In addition, the “Test B disease control rating” value in test [1] is 89%. In addition, in test [2], the “Test C disease control rating” value stood at 56%. Further, in the test with Phakopsora pachyrhizi, the “Test D disease control rating” value is recorded as 66%. Besides, the “Test E disease control rating” value with Botrytis cinerea amounted to 16%. For the same compound, the “Test F disease control rating” value with Alternaria solani amounted to 46%.
Take `Cc1nn(C)c(Nc2ccccc2[N+](=O)[O-])c1-c1c(F)cc(F)cc1F` [Compound 149]: the “Test A disease control rating” value with Septoria tritici amounted to 100%. Further, the “Test B disease control rating” value in test [1] is 80%. For the same compound, the “Test C disease control rating” value in test [2] amounted to 97%. For the same compound, the “Test D disease control rating” value in the test on Phakopsora pachyrhizi amounted to 0%. The “Test E disease control rating” value in the test with Botrytis cinerea is on record as 99%. Moreover, the “Test F disease control rating” value with Alternaria solani stood at 96%.
As to `Cc1nn(C)c(Nc2c(Cl)cccc2[N+](=O)[O-])c1-c1c(F)cccc1Cl` [Compound 38], the “Test A disease control rating” value in the test on Septoria tritici amounted to 100%. Moreover, in test [1], the “Test B disease control rating” value was 99%. In addition, the “Test C disease control rating” value in test [2] was 95%. The “Test D disease control rating” value in the test on Phakopsora pachyrhizi came out at 0%. Besides, the “Test E disease control rating” value in the test on Botrytis cinerea is listed as 88%. In addition, the “Test F disease control rating” value in the test on Alternaria solani is recorded as 0%.
Take `Cc1nn(C)c(Nc2c(F)cccc2[N+](=O)[O-])c1-c1c(F)cc(Cl)cc1F` [Compound 151]: the “Test A disease control rating” value in the test on Septoria tritici is recorded as 100%. Moreover, in test [1], the “Test B disease control rating” value stood at 100%. Also, in test [2], the “Test C disease control rating” value came out at 99%. Also, in the test with Phakopsora pachyrhizi, the “Test D disease control rating” value is recorded as 0%. Besides, the “Test E disease control rating” value with Botrytis cinerea is recorded as 99%. For the same compound, the “Test F disease control rating” value in the test on Alternaria solani was found to be 99%.
`Cc1nn(C)c(Nc2ccccc2[N+](=O)[O-])c1-c1c(F)cc(Cl)cc1F` [Compound 168]: the “Test A disease control rating” value in the test with Septoria tritici worked out at 100%. For the same compound, the “Test B disease control rating” value in test [1] is reported as 74%. In addition, the “Test C disease control rating” value in test [2] is 97%. Moreover, the “Test D disease control rating” value in the test with Phakopsora pachyrhizi stood at 0%. In the test with Botrytis cinerea, the “Test E disease control rating” value is 99%. Moreover, the “Test F disease control rating” value with Alternaria solani stood at 40%.
For the compound `COc1ccc(-c2c(C)nn(C)c2Nc2c(Cl)cc(C)cc2[N+](=O)[O-])c(Cl)c1` [Compound 66], the “Test A disease control rating” value with Septoria tritici is given as 100%. In addition, the “Test B disease control rating” value in test [1] came out at 100%. For the same compound, the “Test C disease control rating” value in test [2] is 98%. In addition, in the test with Phakopsora pachyrhizi, the “Test D disease control rating” value was determined as 97%. Besides, the “Test E disease control rating” value in the test with Botrytis cinerea is recorded as 98%. Besides, in the test on Alternaria solani, the “Test F disease control rating” value was found to be 96%.
On to `Cc1nn(C)c(Nc2cc(F)c(F)cc2[N+](=O)[O-])c1-c1ccc(F)cc1Cl` [Compound 32], for which the “Test A disease control rating” value in the test with Septoria tritici was determined as 93%. Moreover, the “Test B disease control rating” value in test [1] came out at 85%. Further, in test [2], the “Test C disease control rating” value is reported as 56%. The “Test D disease control rating” value in the test on Phakopsora pachyrhizi is 98%. Besides, in the test with Botrytis cinerea, the “Test E disease control rating” value is given as 99%. Also, the “Test F disease control rating” value in the test with Alternaria solani is 0%.
For `Cc1nn(C)c(Nc2c(Cl)cc(F)cc2[N+](=O)[O-])c1-c1c(F)cccc1Cl` [Compound 49], in the test with Septoria tritici, the “Test A disease control rating” value was 100%. Moreover, the “Test B disease control rating” value in test [1] came to 100%. The “Test C disease control rating” value in test [2] is listed as 95%. Moreover, the “Test D disease control rating” value in the test on Phakopsora pachyrhizi was determined as 25%. In addition, the “Test E disease control rating” value in the test on Botrytis cinerea was 94%. Besides, the “Test F disease control rating” value in the test with Alternaria solani is listed as 26%.
Turning to `Cc1nn(C)c(Nc2c(Cl)cc(Cl)cc2[N+](=O)[O-])c1-c1c(F)cccc1F` [Compound 96], the “Test A disease control rating” value with Septoria tritici is given as 100%. In addition, in test [1], the “Test B disease control rating” value was determined as 95%. Also, the “Test C disease control rating” value in test [2] was 0%. In addition, the “Test D disease control rating” value with Phakopsora pachyrhizi worked out at 0%. The “Test E disease control rating” value with Botrytis cinerea worked out at 80%. Moreover, in the test on Alternaria solani, the “Test F disease control rating” value was 0%.
